Data taken from the supplement of paper PMC10627819.

Assays:
B. subtilis 168 [1] = test: fitness (endpoint OD595 vs no drug) (fraction); higher = more growth
How it was run: (§1)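 Plates with 384 wells were inoculated at OD595 0.01 using 30 µl of TSB, LB Lennox or CY, or 55 µl for S. pneumoniae. Incubation was at 37 °C, with OD595 measured every 30 min for 14 h. Fitness is the stationary-phase transition optical density over the robust mean of no-drug control wells, after first-reading background subtraction; it is capped at 1.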

S. pneumoniae D39V [2] = test: as above
How it was run: as §1

S. aureus Newman [3] = test: as above
How it was run: as §1

S. aureus DSM 20231 [4] = test: as above
How it was run: as §1

B. subtilis 168 [5] = test: Bliss interaction score (quartile over a dose matrix) (fitness difference); higher = more antagonism (negative = synergy)
How it was run: (§2)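 The Bliss score takes observed fitness and subtracts the expected fitness, calculated as a product of single-drug fitness values. Those single-drug values were inferred from the combination data. Fitness is OD595 at entry into stationary phase divided by the plate's robust no-drug mean, capped at 1, and the score is summarised by quartiles across technical, biological and donor/recipient replicates.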

S. pneumoniae D39V [6] = test: as above
How it was run: as §2

S. aureus Newman [7] = test: as above
How it was run: as §2

S. aureus DSM 20231 [8] = test: as above
How it was run: as §2
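Wherever Bliss interaction score (quartile over a dose matrix) is given: first quartile when negative (synergy) and third quartile when positive (antagonism).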

CO/N=C(\C(=O)N[C@@H]1C(=O)N2C(C(=O)O)=C(COC(C)=O)CS[C@H]12)c1csc(N)n1 [Cefotaxime] + C[n+]1ccc(-c2cc[n+](C)cc2)cc1 [Paraquat]
fitness, one replicate
Settings	partner 1.25 µg/mL	partner 2.5 µg/mL	partner 5 µg/mL
B. subtilis 168 [1], first compound 0.00775 µg/mL	0.847	0.764	0.596
B. subtilis 168 [1], first compound 0.0155 µg/mL	0.694	0.613	0.332
B. subtilis 168 [1], first compound 0.031 µg/mL	0.494	0.423	0.279
S. aureus DSM 20231 [4], first compound 0.039 µg/mL	0.729	0.775	0.767
S. aureus Newman [3], first compound 0.625 µg/mL	0.0489	0.0421	0.0459
S. aureus Newman [3], first compound 1.25 µg/mL	0.0645	0.0717	0.0769
S. aureus Newman [3], first compound 2.5 µg/mL	0.0777	0.0674	0.0627

fitness
Settings	partner 1.25 µg/mL	partner 1.5 µg/mL	partner 2.5 µg/mL	partner 3 µg/mL	partner 5 µg/mL	partner 6 µg/mL
B. subtilis 168 [1], first compound 0.5 µg/mL	0.199	–	0.171	–	0.166	–
B. subtilis 168 [1], first compound 1 µg/mL	0.108	–	0.0698	–	0.0734	–
B. subtilis 168 [1], first compound 2 µg/mL	0.0929	–	0.0597	–	0.0873	–
S. aureus DSM 20231 [4], first compound 0.078 µg/mL	0.762	–	0.767	–	0.748	–
S. aureus DSM 20231 [4], first compound 0.156 µg/mL	0.656	–	0.704	–	0.703	–
S. aureus DSM 20231 [4], first compound 0.312 µg/mL	0.611	–	0.664	–	0.65	–
S. aureus Newman [3], first compound 0.078 µg/mL	0.694	–	0.688	–	0.702	–
S. aureus Newman [3], first compound 0.156 µg/mL	0.521	–	0.542	–	0.573	–
S. aureus Newman [3], first compound 0.312 µg/mL	0.304	–	0.314	–	0.29	–
S. pneumoniae D39V [2], first compound 0.0018 µg/mL	–	0.986	–	0.971	–	0.957
S. pneumoniae D39V [2], first compound 0.0035 µg/mL	–	0.992	–	≥ 1	–	0.962
S. pneumoniae D39V [2], first compound 0.007 µg/mL	–	0.944	–	0.93	–	0.843

Settings	Bliss interaction score
B. subtilis 168 [5]	-0.0771
S. aureus DSM 20231 [8]	-0.0739
S. aureus Newman [7]	-0.0297
S. pneumoniae D39V [6]	-0.0531

CO/N=C(\C(=O)N[C@@H]1C(=O)N2C(C(=O)O)=C(COC(C)=O)CS[C@H]12)c1csc(N)n1 [Cefotaxime] + Cc1cc(NS(=O)(=O)c2ccc(N)cc2)no1 [Sulfamethoxazol]
fitness, one replicate
Settings	partner 0.5 µg/mL	partner 1 µg/mL	partner 2 µg/mL	partner 4 µg/mL	partner 8 µg/mL
B. subtilis 168 [1], first compound 0.00775 µg/mL	–	0.802	0.77	0.757	–
B. subtilis 168 [1], first compound 0.0155 µg/mL	–	0.719	0.638	0.6	–
B. subtilis 168 [1], first compound 0.031 µg/mL	–	0.552	0.513	0.475	–
B. subtilis 168 [1], first compound 0.0625 µg/mL	0.664	0.494	0.438	–	–
B. subtilis 168 [1], first compound 0.125 µg/mL	0.395	0.402	0.275	–	–
B. subtilis 168 [1], first compound 0.25 µg/mL	0.325	0.0239	0.201	–	–
S. aureus DSM 20231 [4], first compound 0.039 µg/mL	–	0.724	0.758	0.714	–
S. aureus Newman [3], first compound 0.039 µg/mL	–	0.86	–	–	0.922
S. aureus Newman [3], first compound 0.078 µg/mL	–	–	–	–	0.877
S. aureus Newman [3], first compound 0.156 µg/mL	–	–	–	–	0.823
S. aureus Newman [3], first compound 0.312 µg/mL	–	–	–	–	0.588
S. aureus Newman [3], first compound 0.625 µg/mL	–	0.0508	0.0123	0.0053	–
S. aureus Newman [3], first compound 1.25 µg/mL	–	0.0193	0.0269	0.0043	–
S. aureus Newman [3], first compound 2.5 µg/mL	–	0.0252	0.0046	0.0076	–

fitness
Settings	partner 1 µg/mL	partner 2 µg/mL	partner 4 µg/mL
B. subtilis 168 [1], first compound 0.5 µg/mL	0.221	0.187	0.211
B. subtilis 168 [1], first compound 1 µg/mL	0.115	0.0739	0.0877
B. subtilis 168 [1], first compound 2 µg/mL	0.11	0.0944	0.0802
S. aureus DSM 20231 [4], first compound 0.078 µg/mL	0.737	0.735	0.74
S. aureus DSM 20231 [4], first compound 0.156 µg/mL	0.681	0.686	0.687
S. aureus DSM 20231 [4], first compound 0.312 µg/mL	0.619	0.605	0.631
S. aureus Newman [3], first compound 0.039 µg/mL	–	0.944	0.886
S. aureus Newman [3], first compound 0.078 µg/mL	0.776	0.821	0.833
S. aureus Newman [3], first compound 0.156 µg/mL	0.687	0.752	0.748
S. aureus Newman [3], first compound 0.312 µg/mL	0.408	0.535	0.547
S. pneumoniae D39V [2], first compound 0.0018 µg/mL	0.945	0.969	0.913
S. pneumoniae D39V [2], first compound 0.0035 µg/mL	0.984	0.955	0.943
S. pneumoniae D39V [2], first compound 0.007 µg/mL	0.894	0.91	0.888

Settings	Bliss interaction score
B. subtilis 168 [5]	0.054
S. aureus DSM 20231 [8]	0.046
S. aureus Newman [7]	0.0672
S. pneumoniae D39V [6]	0.0301
